Measured values: patent publication US6380216B1, “Use of (+)-α-(2,3-dimethoxyphenyl)-1-[2-(4-fluorophenyl) ethyl]-4-piperidinemethanol in treating depressive disorders and bipolar disorders” (Aventis Pharmaceuticals Inc., priority 1996, dated 2002)

Tests used:
[1] = system: Male Wistar rats; experiment: Chronic Mild Stress Model of Depression (CMS), sucrose intake
Excerpt: CMS uses mild stressors, such as food and water deprivation, small temperature changes, changes of cage mates, etc. Over a period of weeks of exposure to the mild stressors, the animals gradually reduce their consumption of a highly preferred sucrose solution which persists (in untreated animals) for several weeks following the cessation of stress.
Male Wistar rats were brought into the laboratory two months before the start of the experiment at which time they weighed aprroximately 300 grams. Except as described below, the animals were singly housed, with food an eater freely available, and maintained on a 12 hour light/dark cycle (lights on at 8 AM) at a temperature of 22±° C.
The animals were first trained to consume a 1% sucrose solution; training consisted of eight 1 hour baseline tests in which sucrose was presented, in the home cage, following 14 hours food and water deprivation; intake was measured by weighing pre-weighed bottles containing the sucrose solution at the end of the test. Subsequently, sucrose consumption was monitored, under similar conditions, at weekly intervals throughout the whole experiment.
On the basis of their sucrose intakes in the final baseline test, the animals were divided into two matched groups. One group of animals was subjected to a chronic mild stress procedure for a period of 9 consecutive weeks. Each week of stress regime consisted of: two periods of food or water deprivation (12 and 14 hour), two periods of 45 degree cage tilt (12 and 14 h), two periods of intermittent overnight illumination (lights on and off every 2 hours), two 14 hour periods of soled cage (200 ml water in sawdust bedding), two 14 hour periods of paired housing, two 14 hour periods of low intensity stroboscopic illumination (150 flashes/min). Stressors were applied continuously throughout the day and night, and scheduled randomly. […] They were deprived of food and water for the 14 hours preceding each sucrose test, but otherwise food and water were freely available in the home cage. […] All drug injections were in a volume of 1 ml/kg body weight. Drugs were administered at 10 AM and sucrose tests were carried out 24 hours following the last drug treatment. After five weeks, the treatments were terminated and after one week of withdrawal a final sucrose test was carried out. Stress was continued throughout the period of treatment and withdrawal.
Results were analyzed by multiple analysis of variance, followed by Fisher's LSD test for post hoc comparisons of means.

[2] = target: D1 (dopamine) receptor (Homo sapiens, UniProt P21728); experiment: affinity for the D1 (dopamine) receptor in in vitro models; format: binding
[3] = target: D2 (dopamine) receptor (Homo sapiens, UniProt P14416); experiment: affinity for the D2 (dopamine) receptor in in vitro models; format: binding
[4] = system: α-1 receptor; experiment: affinity for the α-1 receptor in in vitro models; format: binding
[5] = system: cholinergic M1/M2 receptors; experiment: affinity for the cholinergic M1/M2 receptors; format: binding
Excerpt: It is orally active, non-toxic at therapeutic doses and potent. It is also capable of being sealed-up for commercial synthesis. Additionally, neurochemical studies indicate that there is a serotonin/dopamine interaction following chronic administration of this compound as described in Life Sciences 56(25): 2209-2222 (1995), incorporated herein by reference. The combination of the foregoing characteristics produces a unique compound for treating patients having either Depressive Disorders of Bipolar Disorders.

Sequence of D2 (dopamine) receptor (P14416 whole entry): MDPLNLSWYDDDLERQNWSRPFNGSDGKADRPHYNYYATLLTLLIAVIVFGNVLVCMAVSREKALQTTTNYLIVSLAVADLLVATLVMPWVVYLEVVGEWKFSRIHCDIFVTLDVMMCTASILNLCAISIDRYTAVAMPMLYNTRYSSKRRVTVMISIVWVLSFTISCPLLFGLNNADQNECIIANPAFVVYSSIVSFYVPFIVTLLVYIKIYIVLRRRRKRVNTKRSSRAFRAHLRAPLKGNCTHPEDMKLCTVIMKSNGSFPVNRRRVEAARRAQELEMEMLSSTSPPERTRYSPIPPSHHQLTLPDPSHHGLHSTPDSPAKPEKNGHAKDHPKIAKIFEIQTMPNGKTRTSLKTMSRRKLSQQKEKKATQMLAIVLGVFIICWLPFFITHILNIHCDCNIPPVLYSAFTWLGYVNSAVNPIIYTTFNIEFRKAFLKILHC
Sequence of D1 (dopamine) receptor (P21728 whole entry): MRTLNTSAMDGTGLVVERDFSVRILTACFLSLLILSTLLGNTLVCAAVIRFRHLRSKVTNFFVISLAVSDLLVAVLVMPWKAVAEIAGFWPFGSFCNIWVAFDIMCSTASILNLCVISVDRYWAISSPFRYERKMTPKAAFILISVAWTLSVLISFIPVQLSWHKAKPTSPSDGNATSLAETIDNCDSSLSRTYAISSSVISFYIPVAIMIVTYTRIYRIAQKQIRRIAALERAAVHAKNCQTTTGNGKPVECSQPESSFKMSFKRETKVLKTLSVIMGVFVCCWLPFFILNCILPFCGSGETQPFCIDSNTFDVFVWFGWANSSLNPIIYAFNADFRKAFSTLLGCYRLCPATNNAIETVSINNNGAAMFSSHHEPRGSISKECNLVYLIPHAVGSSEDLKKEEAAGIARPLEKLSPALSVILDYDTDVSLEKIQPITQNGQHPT

| Compound | effect on sucrose intake in control animals ([1]; control (unstressed) rats, 10 mg/kg ip daily, five weeks) | weeks of treatment after which sucrose intake was significantly increased from Week 0 scores ([1]; stressed rats, 10 mg/kg ip daily) | sucrose intake after five weeks of treatment compared with controls ([1]; stressed rats, 10 mg/kg ip daily, Week 5) | effect on sucrose intake in stressed animals ([1]; stressed rats, 10 mg/kg ip daily, five weeks) | sucrose intake one week after withdrawal from the drug ([1]; stressed rats, 10 mg/kg ip, one week after withdrawal) | affinity for the D1 (dopamine) receptor [2] | affinity for the D2 (dopamine) receptor [3] | affinity for the α-1 receptor [4] | affinity for the cholinergic M1/M2 receptors [5] | effect on sucrose intake in control animals ([1]; control (unstressed) rats, 0.002, 0.02 and 0.2 mg/kg orally daily, five weeks) | sucrose intakes one week after withdrawal from the treatment ([1]; control and stressed rats, 0.002, 0.02 and 0.2 mg/kg orally, one week after withdrawal) | weeks of treatment after which sucrose intake was significantly increased from initial scores (Week 0) ([1]; stressed rats, 0.02 mg/kg orally daily) | amount of sucrose solution drunk at the end of treatment period (Week 5) ([1]; stressed rats, 0.02 mg/kg orally daily, Week 5) | weeks of treatment after which sucrose intake was significantly increased from initial scores (Week 0) ([1]; stressed rats, 0.2 mg/kg orally daily) | amount of sucrose solution drunk at the end of treatment period (Week 5) ([1]; stressed rats, 0.2 mg/kg orally daily, Week 5) | effect on sucrose intake in stressed animals ([1]; stressed rats, 0.002, 0.02 and 0.2 mg/kg orally daily, five weeks (overall Treatment effect)) | effect on sucrose intake throughout the whole treatment period ([1]; stressed rats, lowest dose 0.002 mg/kg orally daily, five weeks) |
| --- | --- | --- | --- | --- | --- | --- | --- | --- | --- | --- | --- | --- | --- | --- | --- | --- | --- |
| CN(C)CCCN1c2ccccc2CCc2ccccc21 [Imipramine, reference compound] | no significant effect | four | no significant differences between drug-treated stressed animals and drug- and saline-treated controls | gradual increase of sucrose intake | maintained at similar level |  |  |  |  |  |  |  |  |  |  |  |  |
| COc1cccc(C(O)C2CCN(CCc3ccc(F)cc3)CC2)c1OC (stereo not drawn) [THE COMPOUND, (+)-α-(2,3-dimethoxyphenyl)-1-[2-(4-fluorophenyl)ethyl]-4-piperidinemethanol] |  |  |  |  |  | greater than 100 nM | greater than 100 nM | greater than 100 nM | little affinity | no significant effect | not significantly changed | two | comparable to that of vehicle-treated controls and significantly higher than that of vehicle-treated stressed animals | three | comparable to that of vehicle-treated controls and significantly higher than that of vehicle-treated stressed animals | gradually reversed the CMS-induced deficit in sucrose intake | no significant effect |
